Key:
advanced solid tumors = tested on: advanced solid tumors; set-up: method as in PMID 24456794, PMID 24440085; conditions: cited from earlier work
MDA-MB-231 cells = assay: Soft agar anchorage-independent growth assay; format: cell-based, human; conditions: MDA-MB-231, soft agar, 3% WF, 10 or 20μM, three weeks
From the text: Vinculin was used as loading control. (B) Same as in (A) but the analysis was focused on STAT3 and Src signaling pathways. Actin was used as loading control. […] Two weeks later plates were stained with crystal violet and colonies photographed (C) and counted (D). […] After three weeks, colonies were photographed (E) and counted (F). Values reported in (D) and (F) represent the mean (± S.D.) of two independent experiments performed in duplicate. * p<0.05; ** p<0.01; *** p<0.001.
Both number and size of the colonies were affected, signifying that, in this context, activity of p70S6K was necessary for both survival and proliferation of breast cancer cells (Fig. 2E and F).
The experiments were performed in six-well tissue culture plates, in triplicate. Fresh medium was added to the wells twice a week as a feeder layer. After three weeks, the number of colonies was counted at 4X magnification.

[1] = tested on: breast cancer local relapse; set-up: method as in PMID 23899505, PMID 24661902, PMID 18316551; conditions: mouse model of breast cancer ref 9,10,24; cited from earlier work

Which clinical benefit (advanced solid tumors; alone or in combination with erlotinib or everolimus, phase I trials ref 11,12) does the source give for `Cc1ccc(S(=O)(=O)O)cc1.Cn1cc(-c2ccc(F)c(C(F)(F)F)c2)nc1C1CCN(c2ncnc3[nH]ncc23)CC1` [LY2584702 tosylate] here?
The clinical benefit was “very limited clinical benefit”.

What about the tolerability (advanced solid tumors; particularly when administered with erlotinib ref 11,12) of the same compound?
Its tolerability is “low tolerability”.

Which results are given for `CCc1cncnc1N1CCN(Cc2nc3ccc(C(F)(F)F)cc3[nH]2)CC1` [PF-4708671]?
ability to survive and grow in anchorage independence (MDA-MB-231 cells): significantly decreased; breast cancer local relapse [1]: strongly impaired

Reference: publication PMC4931847, “Preclinical validation of a novel compound targeting p70S6 kinase in breast cancer” (Aging (Albany NY), 2016)
